The values that follow come from article PMC8637440, “Structural Modifications Yield Novel Insights Into the Intriguing Pharmacodynamic Potential of Anti-inflammatory Nitro-Fatty Acids” (Frontiers in Pharmacology, 2021).

The test system of assay [1] is NF-κB p50. In words: NF-κB p50 transcription factor ELISA in TNFα-stimulated HCT-116 cells. Particulars: 14 h preincubation, then 10 ng/ml TNF-α 4 h, HCT-116, ELISA; for inhibition of NF-κB p50 signaling: 10 µM. In kind it is cell-based, human. The protocol:
The Nrf-2 and NF-κB transcription factors in the nuclear extracts were detected using an Nrf-2 Transcription Assay Kit (Cayman Chemical, # 600590) and NF-κB (p65 and p50) Transcription Factor Assay Kit (Cayman Chemical, # 10007889 and # 10006912). Prior to assay performance, the nuclear extracts were generated using a Nuclear Extraction Kit (Cayman Chemical, # 10009277). The assay was performed according to the manufacturer’s instructions. For all kits, the nuclear extracts were incubated overnight at 4°C. Development was carried out for 15–20 min or until the wells turned medium to dark blue. Five minutes after the stop solution had been added, the absorbance was read at 450 nm using a plate reader.
The proteasome inhibitor MG132 ([Lee and Goldberg, 1998]) was used as a positive control, as proteasomal inhibition leads to stabilization of I-κB and thus inhibits the activation of the NF-κB signaling pathway. We used a MG132 incubation period of 4 h as longer incubations have been described to activate NF-κB signaling ([Lee et al., 2013]).
FIGURE 1 Effects of NFA on the NF-κB p65 and p50 signaling pathway in colorectal cancer cells. […] Incubation for 4 h with the proteasome inhibitor MG132 (1 µM) served as the positive control. […] Values are normalized to protein concentration and unstimulated vehicle control. Data are represented as mean ± SD of (A) n = 3 (DMSO, 16.9.9, 9NOA control of right panel, 18.4.4, 18.6.7, and 18.9.10), n = 4 (all other derivatives) and (B) n = 5. Statistical significance was calculated by one-way analysis of variance (ANOVA) with Bonferroni post-test. *p ≤ 0.03, **p ≤ 0.0021, ***p ≤ 0.0002, ****p ≤ 0.0001 were considered significant versus TNF-α treatment.

The target of assay [2] is T1, 12-LO (Homo sapiens, UniProt P18054).
T1 construct: endogenous in cells; host or cells: platelet impurities in human PMNL preparations
T1 sequence (P18054 1-663): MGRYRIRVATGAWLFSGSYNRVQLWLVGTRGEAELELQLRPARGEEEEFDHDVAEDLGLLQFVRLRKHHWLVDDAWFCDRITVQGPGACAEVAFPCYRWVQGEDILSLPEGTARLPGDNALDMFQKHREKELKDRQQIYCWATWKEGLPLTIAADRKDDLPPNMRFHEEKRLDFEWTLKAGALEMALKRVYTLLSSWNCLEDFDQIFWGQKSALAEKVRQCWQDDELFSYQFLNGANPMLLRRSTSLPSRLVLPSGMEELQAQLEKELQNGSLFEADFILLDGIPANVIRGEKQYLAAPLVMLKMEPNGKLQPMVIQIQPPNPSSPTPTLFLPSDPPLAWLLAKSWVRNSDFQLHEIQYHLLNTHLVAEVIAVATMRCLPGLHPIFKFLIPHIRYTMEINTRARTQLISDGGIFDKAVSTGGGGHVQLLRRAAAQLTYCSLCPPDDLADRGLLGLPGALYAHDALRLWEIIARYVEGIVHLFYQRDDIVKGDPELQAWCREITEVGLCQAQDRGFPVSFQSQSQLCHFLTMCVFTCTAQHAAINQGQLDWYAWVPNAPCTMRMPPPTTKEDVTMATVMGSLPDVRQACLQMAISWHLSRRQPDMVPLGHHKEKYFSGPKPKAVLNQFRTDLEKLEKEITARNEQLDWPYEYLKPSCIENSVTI
The assay is described as follows: 12-HETE formation in intact PMNL, A23187 in absence of AA. The following applies: read-out: PMNL (w/o AA) 12-HETE IC50. In kind it is cell-based.

Assay [3] concerns the target T2, sEH (Homo sapiens, UniProt P34913).
T2 sequence (P34913 1-555): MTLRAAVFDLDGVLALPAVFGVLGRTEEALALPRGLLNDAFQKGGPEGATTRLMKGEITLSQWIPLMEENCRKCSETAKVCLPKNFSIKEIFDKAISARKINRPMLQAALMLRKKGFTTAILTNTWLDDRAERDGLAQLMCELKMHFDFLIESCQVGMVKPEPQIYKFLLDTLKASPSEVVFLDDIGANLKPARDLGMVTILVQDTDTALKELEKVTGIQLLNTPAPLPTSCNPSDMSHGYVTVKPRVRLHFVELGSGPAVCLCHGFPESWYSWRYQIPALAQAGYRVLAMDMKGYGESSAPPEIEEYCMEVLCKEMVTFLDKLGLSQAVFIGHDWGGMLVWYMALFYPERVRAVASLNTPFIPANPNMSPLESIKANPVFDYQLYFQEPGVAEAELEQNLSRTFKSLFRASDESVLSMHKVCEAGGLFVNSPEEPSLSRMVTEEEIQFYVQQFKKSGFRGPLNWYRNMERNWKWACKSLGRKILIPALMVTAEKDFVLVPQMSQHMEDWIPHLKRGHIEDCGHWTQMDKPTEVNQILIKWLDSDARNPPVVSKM
The assay is described as follows: Cell-based sEH activity assay in HepG2 cells. Also on record: endogenous in cells; host or cells: HepG2. Particulars: for inhibition of sEH activity in HepG2 cells: 10 µM, 24 h. The protocol:
sEH activity in the cells was analyzed using a Soluble Epoxide Hydrolase Cell-Based Assay Kit (Cayman Chemical, #600090). […] Following incubation, the cells were processed according to the manufacturer’s instructions. The assay uses an internal signal subtraction to minimize potential errors generated by sEH-independent product formation due esterase mediated hydrolysis. The fluorescence intensity of the samples was measured in a plate reader at excitation/emission wavelengths of 330/465 nm sEH activity was calculated by the 6-methoxy-2-naphthaldehyde standard curve.
FIGURE 3 Effects of NFA on sEH activity. […] Data are the mean ± SEM of n = 3–7. […] The cells were lysed, and hydrolase activity was measured by Epoxy Fluor 7 lysis. […] Statistical significance was calculated by one-way ANOVA with Bonferroni post-test and multiple comparisons against the DMSO control.

For `CCCCCCCCCCC=C(CCCCCC(=O)O)[N+](=O)[O-]` [18.7.7, 7-nitro-octadec-7-enoic acid], the “inhibition of NF-κB p50 signaling” value in assay [1] was “most effective p50 inhibitors”.
Still for that read-out and setting: for `CCCCCCCCCC=C(CCCCCCC(=O)O)[N+](=O)[O-]` [18.8.8, 8-nitro-octadec-8-enoic acid] the value was “most effective p50 inhibitors”; for `CCCCCCCCCC(=CCCCCCCC(=O)O)[N+](=O)[O-]` [18.8.9, 9-nitro-octadec-8-enoic acid], “most effective p50 inhibitors”.
As for `CCCCCCCCC=C(CCCCCCCC(=O)O)[N+](=O)[O-]` [18.9.9, 9-nitro-octadec-9-enoic acid], the “inhibition of NF-κB p50 signaling” value in assay [1] is “most effective p50 inhibitors”. Also, in assay [1] (Homo sapiens, read-out: inhibition of NF-κB p50 signaling), the inhibition at 10 µM was approximately 60%. In addition, the IC50 in assay [2] is 6.26 ± 0.823 µM.
Consider `CCCCCCCCC(=CCCCCCCCC(=O)O)[N+](=O)[O-]` [18.9.10, 10-nitro-octadec-9-enoic acid], for which the “inhibition of sEH activity in HepG2 cells” value in assay [3] is listed as “most efficient enzyme inhibition”.
Still for that read-out and setting: as for `CCCCCCCC=C(CCCCCCCCC(=O)O)[N+](=O)[O-]` [18.10.10, 10-nitro-octadec-10-enoic acid], the entry is “most efficient enzyme inhibition”; as for `CCCCCCC=C(CCCCCCCCCC(=O)O)[N+](=O)[O-]` [18.11.11, 11-nitro-octadec-11-enoic acid], “most efficient enzyme inhibition”.
Turning to `CCCCCCCCCCC=C(CCCCCCCC(=O)O)[N+](=O)[O-]` [20.9.9, 9-nitro-eicos-9-enoic acid], in assay [2], the IC50 was 15.5 ± 0.74 µM.
Turning to `CCCCCCCC/C=C\CCCCCCCC(=O)O` [OA, oleic acid, reference compound], the “inhibition of sEH activity in HepG2 cells” value in assay [3] is given as “strong suppressive effect”. Moreover, in assay [3] (HepG2, 24 h), the inhibition at 10 µM was more than 50%.
